Source: patent US7560552B2, “Thiopyrimidine and isothiazolopyrimidine kinase inhibitors” (Abbott Laboratories, priority 2002, dated 2009)

CC(C)c1sc2ncnc(N)c2c1-c1ccc(NC(=O)c2ccccc2)cc1 [Example 8, N-[4-(4-amino-6-isopropylthieno[2,3-d]pyrimidin-5-yl)phenyl]benzamide] showed a melting point of over 250 °C.

First: Cc1ccc(NC(=O)Nc2ccc(-c3c(Cc4ccccc4)sc4ncnc(N)c34)cc2)cc1 [Example 9, N-[4-(4-amino-6-benzylthieno[2,3-d]pyrimidin-5-yl)phenyl]-N′-(4-methylphenyl)urea]
Second: Cc1ccccc1NC(=O)Nc1ccc(-c2c(Cc3ccccc3)sc3ncnc(N)c23)cc1 [Example 11, N-[4-(4-amino-6-benzylthieno[2,3-d]pyrimidin-5-yl)phenyl]-N′-(2-methylphenyl)urea]
The melting point of the first is lower: 169 to 173 °C for the first, 245 to 248 °C for the second.

First: Cc1ccccc1NC(=O)Nc1ccc(-c2c(C(C)C)sc3ncnc(N)c23)cc1 [Example 12, N-[4-(4-amino-6-isopropylthieno[2,3-d]pyrimidin-5-yl)phenyl]-N′-(2-methylphenyl)urea]
Second: Cc1ccccc1NC(=O)Nc1ccc(-c2c(CCO)sc3ncnc(N)c23)cc1 [Example 107, N-{4-[4-amino-6-(2-hydroxyethyl)thieno[2,3-d]pyrimidin-5-yl]phenyl}-N′-(2-methylphenyl)urea]
The melting point of the first is higher: 233 to 234 °C for the first, 159 to 162 °C for the second.

Compared with Nc1ncnc2sc(Cc3ccccc3)c(-c3ccc(NS(=O)(=O)c4ccccc4)cc3)c12 [Example 13, N-[4-(4-amino-6-benzylthieno[2,3-d]pyrimidin-5-yl)phenyl]benzenesulfonamide], COCCc1sc2ncnc(N)c2c1-c1ccc(NS(=O)(=O)c2ccccc2)cc1 [Example 111, N-{4-[4-amino-6-(2-methoxyethyl)thieno[2,3-d]pyrimidin-5-yl]phenyl}benzenesulfonamide] is higher in melting point: 100 to 105 °C for the first, 206 to 208 °C for the second.

First: COCCc1sc2ncnc(N)c2c1-c1ccc(NC(=O)Nc2ccc(C)cc2)cc1 [Example 110, N-{4-[4-amino-6-(2-methoxyethyl)thieno[2,3-d]pyrimidin-5-yl]phenyl}-N′-(4-methylphenyl)urea]
Second: COCCc1sc2ncnc(N)c2c1-c1ccc(NC(=O)Nc2ccccc2C)cc1 [Example 137, N-{4-[4-amino-6-(2-methoxyethyl)thieno[2,3-d]pyrimidin-5-yl]phenyl}-N′-(2-methylphenyl)urea]
The melting point of the first is lower: 128 to 132 °C for the first, 217 to 219 °C for the second.

First: COCCc1sc2ncnc(N)c2c1-c1ccc(NC(=O)Cc2cccc(C)c2)cc1 [Example 112, N-{4-[4-amino-6-(2-methoxyethyl)thieno[2,3-d]pyrimidin-5-yl]phenyl}-2-(3-methylphenyl)acetamide]
Second: Cc1cccc(CC(=O)Nc2ccc(-c3c(CCO)sc4ncnc(N)c34)cc2)c1 [Example 350, N-{4-[4-amino-6-(2-hydroxyethyl)thieno[2,3-d]pyrimidin-5-yl]phenyl}-2-(3-methylphenyl)acetamide]
The melting point of the first is higher: 200 to 202 °C for the first, 142 to 144 °C for the second.

First: COCCc1sc2ncnc(N)c2c1-c1ccc(NC(=O)c2ccccc2)cc1 [Example 113, N-{4-[4-amino-6-(2-methoxyethyl)thieno[2,3-d]pyrimidin-5-yl]phenyl}benzamide]
Second: COCCc1sc2ncnc(N)c2c1-c1ccc(NC(=O)Nc2cc(C(F)(F)F)ccc2F)cc1 [Example 140, N-{4-[4-amino-6-(2-methoxyethyl)thieno[2,3-d]pyrimidin-5-yl]phenyl}-N′-[2-fluoro-5-(trifluoromethyl)phenyl]urea]
The melting point of the first is lower: 200 to 202 °C for the first, 209 to 211 °C for the second.

First: Nc1ncnc2sc(Cc3cccnc3)c(-c3ccc(NC(=O)Nc4cccc(Cl)c4)cc3)c12 [Example 117, N-{4-[4-amino-6-(pyridin-3-ylmethyl)thieno[2,3-d]pyrimidin-5-yl]phenyl}-N′-(3-chlorophenyl)urea]
Second: Nc1ncnc2sc(Cc3ccncc3)c(-c3ccc(NC(=O)Nc4cccc(C(F)(F)F)c4)cc3)c12 [Example 142, N-{4-[4-amino-6-(pyridin-4-ylmethyl)thieno[2,3-d]pyrimidin-5-yl]phenyl}-N′-[3-(trifluoromethyl)phenyl]urea]
The melting point of the first is higher: 169 to 172 °C for the first, 162 to 166 °C for the second.

Molecule Nc1ncnc2sc(CCO)c(-c3ccc(NC(=O)Nc4cccc(C(F)(F)F)c4)cc3)c12 [Example 139, N-{4-[4-amino-6-(2-hydroxyethyl)thieno[2,3-d]pyrimidin-5-yl]phenyl}-N′-[3-(trifluoromethyl)phenyl]urea] has a melting point of 155 to 158 °C.
